Measurements taken from ChEMBL document CHEMBL3751729, “Benzamide derivatives and their constrained analogs as histamine H3 receptor antagonists” (Eur J Med Chem, 2016).

Tests used:
[1] = molecular target: T1, Histamine H3 receptor (Homo sapiens, UniProt Q9Y5N1); test: Displacement of [3H]R-alpha-methyl histamine from recombinant human H3 receptor
[2] = molecular target: T1, Histamine H3 receptor; test: Antagonist activity at recombinant human H3 receptor expressed on CHO-K1 cells assessed as cAMP level by luciferase gene reporter assay; assay type: functional, cell-based
[3] = molecular target: T1, Histamine H3 receptor; test: Binding affinity to recombinant human H3 receptor
[4] = Metabolic stability in rat liver microsomes assessed as compound metabolized after 30 mins by LC-MS/MS analysis; assay type: ADME; settings: read-out: Drug metabolism
[5] = tested on: Rattus norvegicus; test: Half life in fasted Wistar rat at 5 mg/kg, iv by LC-MS/MS analysis; assay type: ADME, organism-based; settings: in vivo
[6] = tested on: Rattus norvegicus; test: AUCt in fasted Wistar rat at 5 mg/kg, po by LC-MS/MS analysis; assay type: ADME, organism-based; settings: in vivo
[7] = tested on: Rattus norvegicus; test: Oral bioavailability in fasted Wistar rat at 5 mg/kg by LC-MS/MS analysis; assay type: ADME, organism-based; settings: in vivo
[8] = Metabolic stability in human liver microsomes assessed as compound metabolized after 30 mins by LC-MS/MS analysis; assay type: ADME; settings: read-out: Drug metabolism
[9] = Cmax in fasted Wistar rat at 5 mg/kg, po by LC-MS/MS analysis; assay type: ADME, organism-based; parameters: dose 5 mg/kg, route oral; settings: in vivo
[10] = molecular target: T2, hERG (KCNH2) (Homo sapiens, UniProt Q12809); test: Inhibition of human ERG at 10 uM by scintillation counting method
[11] = molecular target: Cytochrome P450 3A4 (Homo sapiens, UniProt P08684); test: Inhibition of human CYP3A4 after 2 mins by LC-MS/MS analysis; assay type: ADME
[12] = molecular target: T2, hERG (KCNH2); test: Inhibition of human ERG at 1 uM by scintillation counting method
[13] = molecular target: Cytochrome P450 2D6 (Homo sapiens, UniProt P10635); test: Inhibition of human CYP2D6 after 12 mins by LC-MS/MS analysis; assay type: ADME
[14] = Drug uptake in Wistar rat brain at 10 mg/kg, po after 1 hr by LC-MS/MS analysis; assay type: ADME, organism-based; settings: read-out: Drug uptake
[15] = tested on: Rattus norvegicus; test: In vivo receptor occupancy at histamine H3 receptor in po dosed Wistar rat by LC-MS/MS analysis; assay type: functional
[16] = Plasma concentration in Wistar rat at 30 mg/kg, po after 1 hr by LC-MS/MS analysis; assay type: ADME, organism-based
[17] = tested on: Rattus norvegicus; test: Apparent volume of distribution in fasted Wistar rat at 3 mg/kg, iv by LC-MS/MS analysis; assay type: ADME, organism-based; settings: in vivo
[18] = Plasma concentration in Wistar rat at 3 mg/kg, po after 1 hr by LC-MS/MS analysis; assay type: ADME, organism-based
[19] = Cmax in fasted Wistar rat at 3 mg/kg, po by LC-MS/MS analysis; assay type: ADME, organism-based; parameters: dose 3 mg/kg, route oral; settings: in vivo
[20] = Drug uptake in Wistar rat brain at 3 mg/kg, po after 1 hr by LC-MS/MS analysis; assay type: ADME, organism-based; settings: read-out: Drug uptake
[21] = Ratio of drug level in brain to blood in Wistar rat at 10 mg/kg, po by LC-MS/MS analysis
[22] = tested on: Rattus norvegicus; test: AUCt in fasted Wistar rat at 3 mg/kg, po by LC-MS/MS analysis; assay type: ADME, organism-based; settings: in vivo
[23] = Drug uptake in Wistar rat brain at 30 mg/kg, po after 1 hr by LC-MS/MS analysis; assay type: ADME, organism-based; settings: read-out: Drug uptake
[24] = tested on: Rattus norvegicus; test: Oral bioavailability in fasted Wistar rat at 3 mg/kg by LC-MS/MS analysis; assay type: ADME, organism-based; settings: in vivo
[25] = Plasma concentration in Wistar rat at 10 mg/kg, po after 1 hr by LC-MS/MS analysis; assay type: ADME, organism-based

T2 sequence (Q12809 whole entry): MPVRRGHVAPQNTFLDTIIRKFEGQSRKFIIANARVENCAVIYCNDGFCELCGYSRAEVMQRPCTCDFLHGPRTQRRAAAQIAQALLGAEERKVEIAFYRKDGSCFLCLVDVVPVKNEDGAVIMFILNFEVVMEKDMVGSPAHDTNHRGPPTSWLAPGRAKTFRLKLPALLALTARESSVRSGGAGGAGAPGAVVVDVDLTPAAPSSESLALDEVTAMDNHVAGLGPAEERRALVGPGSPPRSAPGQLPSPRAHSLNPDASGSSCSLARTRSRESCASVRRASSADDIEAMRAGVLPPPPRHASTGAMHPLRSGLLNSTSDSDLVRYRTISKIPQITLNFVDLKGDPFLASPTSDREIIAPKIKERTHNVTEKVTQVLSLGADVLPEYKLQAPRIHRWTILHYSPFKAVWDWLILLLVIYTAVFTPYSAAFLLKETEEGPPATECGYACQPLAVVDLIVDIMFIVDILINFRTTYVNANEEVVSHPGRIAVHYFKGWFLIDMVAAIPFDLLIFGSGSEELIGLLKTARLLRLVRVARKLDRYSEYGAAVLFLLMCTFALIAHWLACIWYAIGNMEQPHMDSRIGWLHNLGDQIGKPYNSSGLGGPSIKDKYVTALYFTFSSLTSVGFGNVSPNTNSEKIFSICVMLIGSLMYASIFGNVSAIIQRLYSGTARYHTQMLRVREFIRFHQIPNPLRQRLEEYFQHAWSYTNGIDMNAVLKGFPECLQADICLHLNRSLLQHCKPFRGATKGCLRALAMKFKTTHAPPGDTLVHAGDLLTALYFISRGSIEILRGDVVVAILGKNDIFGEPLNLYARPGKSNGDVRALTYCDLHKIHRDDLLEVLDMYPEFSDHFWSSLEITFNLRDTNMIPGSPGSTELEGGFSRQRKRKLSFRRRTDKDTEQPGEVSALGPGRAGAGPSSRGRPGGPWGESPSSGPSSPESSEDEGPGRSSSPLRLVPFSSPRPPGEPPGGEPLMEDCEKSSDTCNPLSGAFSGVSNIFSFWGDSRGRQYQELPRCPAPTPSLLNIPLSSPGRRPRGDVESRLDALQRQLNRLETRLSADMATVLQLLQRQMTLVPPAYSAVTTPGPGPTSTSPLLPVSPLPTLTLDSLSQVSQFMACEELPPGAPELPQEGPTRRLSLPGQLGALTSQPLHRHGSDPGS
T1 sequence (Q9Y5N1 whole entry): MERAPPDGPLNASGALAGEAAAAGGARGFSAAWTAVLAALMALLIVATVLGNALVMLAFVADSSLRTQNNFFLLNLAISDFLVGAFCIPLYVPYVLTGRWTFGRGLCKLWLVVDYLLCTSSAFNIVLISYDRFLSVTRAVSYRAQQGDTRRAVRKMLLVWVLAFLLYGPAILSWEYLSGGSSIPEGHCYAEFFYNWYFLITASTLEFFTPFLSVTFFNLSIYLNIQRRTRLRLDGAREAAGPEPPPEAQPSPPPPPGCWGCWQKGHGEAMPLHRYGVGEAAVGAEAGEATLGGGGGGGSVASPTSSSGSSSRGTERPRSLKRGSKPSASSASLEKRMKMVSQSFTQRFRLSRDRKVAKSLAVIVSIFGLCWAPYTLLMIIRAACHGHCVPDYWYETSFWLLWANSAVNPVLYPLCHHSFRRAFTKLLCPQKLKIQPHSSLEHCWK
Sequence of Cytochrome P450 3A4 (P08684 whole entry): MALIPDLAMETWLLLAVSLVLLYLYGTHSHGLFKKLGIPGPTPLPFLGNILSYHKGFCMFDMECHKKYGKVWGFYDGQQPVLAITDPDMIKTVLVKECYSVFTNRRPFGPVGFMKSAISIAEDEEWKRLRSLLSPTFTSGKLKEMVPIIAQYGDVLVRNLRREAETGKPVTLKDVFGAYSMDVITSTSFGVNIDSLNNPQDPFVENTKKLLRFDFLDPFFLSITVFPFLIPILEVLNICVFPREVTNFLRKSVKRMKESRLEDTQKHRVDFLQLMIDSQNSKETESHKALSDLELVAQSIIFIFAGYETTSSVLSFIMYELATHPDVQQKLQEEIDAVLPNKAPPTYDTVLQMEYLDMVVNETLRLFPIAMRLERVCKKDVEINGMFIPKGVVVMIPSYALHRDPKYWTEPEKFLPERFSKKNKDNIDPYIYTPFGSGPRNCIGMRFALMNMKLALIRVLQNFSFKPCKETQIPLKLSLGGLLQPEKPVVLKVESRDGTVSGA
Sequence of Cytochrome P450 2D6 (P10635 whole entry): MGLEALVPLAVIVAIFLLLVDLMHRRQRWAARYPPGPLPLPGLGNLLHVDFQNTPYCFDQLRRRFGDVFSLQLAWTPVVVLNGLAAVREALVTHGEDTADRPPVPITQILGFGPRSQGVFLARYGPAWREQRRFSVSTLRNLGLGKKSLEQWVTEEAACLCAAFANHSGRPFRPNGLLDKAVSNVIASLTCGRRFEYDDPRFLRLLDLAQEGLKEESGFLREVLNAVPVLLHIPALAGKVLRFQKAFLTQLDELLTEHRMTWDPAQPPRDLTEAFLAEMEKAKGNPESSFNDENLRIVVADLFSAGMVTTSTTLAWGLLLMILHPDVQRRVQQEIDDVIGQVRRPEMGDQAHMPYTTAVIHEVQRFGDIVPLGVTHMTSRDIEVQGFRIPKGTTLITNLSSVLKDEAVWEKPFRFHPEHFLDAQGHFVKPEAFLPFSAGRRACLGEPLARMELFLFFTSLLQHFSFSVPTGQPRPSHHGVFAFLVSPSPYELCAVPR

CC(C)N1CCC(Oc2ccc3c(c2)CCN(C2CCN(C4CCC4)CC2)C3=O)CC1
Ki [1]: 1.8 nM

CC(C)N1CCC(Oc2ccc(C(=O)NC3CCN(C4CCC4)CC3)c(F)c2)CC1
Ki [1]: 10.5 nM

CC(C)N1CCC(NC(=O)c2ccc(OC3CCN(C4CCCC4)CC3)cc2)C1 (stereo not drawn)
IC50 [2]: 274 nM
Ki [3]: 1 nM

CC(C)N1CCC(Oc2ccc(C(=O)NC3CCN(C(C)C)C3)cc2)CC1 (racemic)
Ki [1]: 5.7 nM

CC(C)N1CCC(NC(=O)c2ccc(OC3CCN(C4CCC4)CC3)cc2Cl)CC1
Ki [1]: 7 nM

CC(C)N1CCC(Oc2ccc(C(=O)NC3CCN(C4CCC4)C3)cc2)CC1 (racemic)
Ki [1]: 2.5 nM

CC(C)N1CCC(NC(=O)c2ccc(OC3CCN(C4CCC4)CC3)cc2)CC1
Ki [1]: 1.6 nM

CC(C)N1CCC(NC(=O)c2ccc(OC3CCN(C4CCC4)CC3)cc2)C1 (racemic)
Ki [1]: 26.9 nM

CC(C)CN1CCC(NC(=O)c2ccc(OC3CCN(C(C)C)CC3)cc2)C1 (stereo not drawn)
metabolised at 0.5 h [4]: 8%
IC50 [2]: 459 nM
t1/2 [5]: 17.51 h
AUCt [6]: 281 ng·h/mL
F [7]: 81%
Ki [3]: 1.2 nM
metabolised at 0.5 h [8]: 18%
Cmax [9]: 18 ng/mL
inhibition at 10 µM [10]: 35%

CC(C)CN1CCC(NC(=O)c2ccc(OC3CCN(C(C)C)CC3)cc2)C1 (racemic)
Ki [1]: 1 nM

CC(C)N1CCC(NC(=O)c2ccc(OC3CCN(C(C)C)CC3)cc2)CC1
Ki [1]: 8.3 nM

O=C(NC1CCN(C2CCC2)CC1)c1ccc(OC2CCN(C3CCC3)CC2)cc1Cl
Ki [1]: 6.7 nM

O=C1CCCN1c1ccc(Oc2ccc3c(c2)CCN(C2CCC2)CC3)nc1 [GSK239512]
Ki [3]: 10 nM

CC(C)N1CCC(Oc2ccc3c(c2)CCN(C2CCN(C(C)C)C2)C3=O)CC1 (racemic)
Ki [1]: 2.1 nM

CC(C)N1CCC(Oc2ccc3c(c2)CCN(C2CCN(C4CCC4)C2)C3=O)CC1 (racemic)
Ki [1]: 1.2 nM

CC(C)N1CCC(NC(=O)c2ccc(OC3CCN(C4CCCC4)CC3)cc2)C1 (racemic)
Ki [1]: 8.6 nM

CC(C)N1CCC(Oc2ccc(C(=O)NC3CCN(C(C)C)C3)cc2)CC1 (stereo not drawn)
metabolised at 0.5 h [4]: 4%
IC50 [2]: 324 nM
IC50 [11]: > 45000 nM
t1/2 [5]: 11.67 h
AUCt [6]: 444 ng·h/mL
F [7]: 75%
Ki [3]: 0.9 nM
metabolised at 0.5 h [8]: 12%
inhibition at 1 µM [12]: 21%
Cmax [9]: 122 ng/mL
IC50 [13]: > 45000 nM

Cc1cc(C(=O)NC2CCN(C(C)C)C2)ccc1OC1CCN(C(C)C)CC1 (racemic)
Ki [1]: 1360 nM

CC(C)N1CCC(Oc2ccc3c(c2)CCN(C2CCN(C(C)C)C2)C3=O)CC1 (stereo not drawn)
IC50 [2]: 14.3 nM
Ki [3]: 0.1 nM

CC(C)N1CCC(Oc2ccc(C(=O)NC3CCN(C4CCC4)C3)c(F)c2)CC1 (racemic)
Ki [1]: 5.7 nM

O=C1c2ccc(OC3CCN(C4CCC4)CC3)cc2CCN1C1CCN(C2CCC2)CC1
concentration at 1 h [14]: 175 ng/g
Activity [15]: Dose-dependent effect
ED50 [15]: 15.5 mg/kg
concentration at 1 h [16]: 76.3 ng/mL
metabolised at 0.5 h [4]: 6%
IC50 [2]: 4.8 nM
Vz [17]: 13 L/kg
concentration at 1 h [18]: 3.7 ng/mL
Cmax [19]: 80 ng/mL
Ki [3]: 0.03 nM
concentration at 1 h [20]: 28.5 ng/g
Kp [21]: 0.54
metabolised at 0.5 h [8]: 10%
inhibition at 1 µM [12]: 23%
AUCt [22]: 1429 ng·h/mL
concentration at 1 h [23]: 765 ng/g
inhibition at 10 µM [10]: 26%
F [24]: 27%
concentration at 1 h [25]: 15.7 ng/mL
Ki [1]: 0.8 nM

CC(C)N1CCC(Oc2ccc(C(=O)NC3CCN(C4CCC4)C3)c(Cl)c2)CC1 (racemic)
Ki [1]: 18.4 nM

Cc1cc(C(=O)NC2CCN(C3CCC3)C2)ccc1OC1CCN(C(C)C)CC1 (racemic)
Ki [1]: 384 nM

Cc1cc(OC2CCN(C(C)C)CC2)ccc1C(=O)NC1CCN(C2CCC2)C1 (racemic)
Ki [1]: 9.2 nM

CC(C)N1CCC(Oc2ccc(C(=O)NC3CCN(C4CCC4)C3)cc2F)CC1 (racemic)
Ki [1]: 7.3 nM

CC(C)N1CCC(NC(=O)c2ccc(OC3CCN(C(C)C)CC3)cc2F)CC1
Ki [1]: 11.4 nM

CC(C)N1CCC(NC(=O)c2ccc(OC3CCN(C4CCC4)CC3)cc2)C1 (stereo not drawn)
IC50 [11]: > 30000 nM
IC50 [13]: > 30000 nM

CC(C)N1CCC(NC(=O)c2ccc(OC3CCOCC3)cc2)C1 (racemic)
Ki [1]: 103 nM
